Assays:
RSV strain A2 = experiment: RSV Cellomics assay for RSV A2 antiviral activity (EC50-RSV-Hep2-96-Cellomics); assay type: cell-based; conditions: human respiratory syncytial virus, HEp-2, 72 h; Hep2 cells infected with RSV strain A2, MOI=0.05, 3 days; Example B1
Experimental: Example B1: RSV Cellomics Assay for RSV A2 Antiviral Activity (EC50-RSV-Hep2-96-Cellomics) 8×10^3 Hep2 cells are seeded into 96 well plates in 100 μL of media (DMEM supplemented with GlutaMAX, 10% FBS and Pen/Strep) and briefly spun at 50×g for 1 minute to attach cells. Cells were further allowed to attach with overnight incubation at 37° C.+5% CO2. The following day, the media was aspirated and 100 μL of fresh DMEM media containing 2% FBS was added. A three-fold dilution series of compounds of interest are then added to the plate using the Tecan D300e dispenser and the plate is normalized to the well with the highest volume of DMSO. The cells are next infected by adding 100 μL of media containing RSV strain A2 at an MOI=0.05 and the plates incubated for 3 days at 37° C.+5% CO2. Following the incubation, the media is removed, and the cells are washed once with 250 μL PBS and fixed with 250 μL ice-cold 100% methanol for 10 minutes at 4° C. The methanol is then removed and the plates air dried for 5 minutes and then washed once with 250 μL PBS to remove any residual methanol. The wells are then blocked 60 µL/well of BlockAid (B10710, Thermo-Fisher) for 1 hour at RT on rocker at which point the blocking buffer is carefully aspirated. Primary antibody against the RSV F protein (MAB 858-1) is then diluted 1:2000 in SuperBlock (37515, Thermo Fisher) and 50 μL of the primary antibody solution is added to each well. The plates are incubated at room temperature for 1 hour with gentle agitation and then washed with 250 μL of PBS-Tween 3 times. A goat anti-mouse AlexaFluor 647 conjugated secondary antibody (Sigma, A21235) is then diluted 1:2000 and Hoescht 33342 (H3570) at 1:1000 in SuperBlock and 50 μL added to the wells for 1 hour at 37° C. After incubation the antibody solution is aspirated, and the wells are then washed with 250 μL of PBS-Tween 3 times. To keep cells from drying out, 100 μL of PBS is added to each well and the plates are sealed with black plate seal. Fluorescence at the 647 nm wavelength is measured using a Cellomics CellInsight CX7 machine. Compound activity is determined as a percentage of the % positive cells (or average intensity) compared to DMSO treated RSV infected well controls following subtraction of uninfected controls. The EC50 values are then calculated using nonlinear regression analysis in GraphPad Prism.

[1] = MT4 CC50 cytotoxicity (CC50-MT4-384); assay type: cell-based; conditions: human; uninfected MT-4 cells, 4-5 days, Cell-Titer Glo; Example G
Experimental: Example G. HEp-2 and MT4 CC50
Cytotoxicity of the compounds was determined in uninfected cells using the cell viability reagent in a similar fashion as described before for other cell types (Cihlar et al., ANTIMICROB AGENTS CHEMOTHER. 2008, 52(2):655-65). HEp-2 (1.5×10^3 cells/well) and MT-4 (2×10^3 cells/well) cells were plated in 384-well plates and incubated with the appropriate medium containing 3-fold serially diluted compound ranging from 15 nM to 100,000 nM. Cells were cultured for 4-5 days at 37° C. Following the incubation, the cells were allowed to equilibrate to 25° C., and cell viability was determined by adding Cell-Titer Glo viability reagent. The mixture was incubated for 10 min, and the luminescence signal was quantified using an Envision plate reader. Untreated cell and cells treated at 2 μM puromycin (Sigma, St. Louis, MO) serve as 100% and 0% cell viability control, respectively. The percent of cell viability was calculated for each tested compound concentration relative to the 0% and 100% controls and the CC50 value was determined by non-linear regression as a compound concentration reducing the cell viability by 50%.

| SMILES | EC50 (RSV strain A2) | CC50 [1] |
| --- | --- | --- |
| N#C[C@]1(CO)O[C@@H](c2ccc3c(N)ncnn23)[C@H](O)[C@@H]1O [Compound 0, (2R,3S,4R,5S)-5-(4-aminopyrrolo[1,2-f][1,2,4]triazin-7-yl)-3,4-dihydroxy-2-(hydroxymethyl)tetrahydrofuran-2-carbonitrile, reference compound] | 9.75 µM | – |
| CCOC(=O)O[C@H]1[C@H](c2ccc3c(N)ncnn23)O[C@](C#N)(COC(C)=O)[C@H]1OC(=O)OCC [Compound 1, ((2R,3S,4S,5S)-5-(4-aminopyrrolo[2,1-f][1,2,4]triazin-7-yl)-2-cyano-3,4-bis((ethoxycarbonyl)oxy)tetrahydrofuran-2-yl)methyl acetate] | 19.2 µM | > 50 µM |
| CCOC(=O)O[C@H]1[C@H](c2ccc3c(N)ncnn23)O[C@](C#N)(COC(=O)C(C)C)[C@H]1OC(=O)OCC [Compound 3, ((2R,3S,4S,5S)-5-(4-aminopyrrolo[2,1-f][1,2,4]triazin-7-yl)-2-cyano-3,4-bis((ethoxycarbonyl)oxy)tetrahydrofuran-2-yl)methyl isobutyrate] | 36.6 µM | > 50 µM |
| CCOC(=O)O[C@H]1[C@H](c2ccc3c(N)ncnn23)O[C@](C#N)(COC(=O)CC(C)(C)C)[C@H]1OC(=O)OCC [Compound 4, ((2R,3S,4S,5S)-5-(4-aminopyrrolo[2,1-f][1,2,4]triazin-7-yl)-2-cyano-3,4-bis((ethoxycarbonyl)oxy)tetrahydrofuran-2-yl)methyl 3,3-dimethylbutanoate] | 37.5 µM | > 50 µM |

Source: patent US20250090537A1, “ANTIVIRAL COMPOUNDS AND METHODS OF MAKING AND USING THE SAME” (Gilead Sciences, Inc., priority 2023, published 2025)
